Assays:
[1] = test system: FGF-inducible Response Element (FiRE); test: pFiRE CAT reporter in syndecan-1 transfected 3T3 cells (3T3 1.5); assay type: cell-based, mouse; settings: 3T3 1.5 cells expressing high levels of syndecan-1, versus wild type 3T3
Description: The Enhancer is Not Functional in 3T3 Cells Expressing High Levels of Syndecan-1. Syndecan-1 transfected 3T3 cells (3T3 1.5) and wild type 3T3 cells were transiently transfected with the pFiRE construct, treated with FGF or a negative control, and analyzed for reporter gene (CAT) expression. The results are depicted in FIG. 16. The closed columns indicate relative CAT activity in control cells (without FGF treatment) while the labeled columns depict relative CAT activity in FGF-treated cells.

syndecan-1 gene [2] = test: Syndecan-1 mRNA quantification in 3T3NIH cells exposed to FGF-2; assay type: cell-based, mouse; settings: 3T3NIH cells, 10 ng/ml FGF-2
Description: Northern Blot—RNA was isolated from 3T3 and NMuMG cells using 4 M guanidine isothiocyanate and CsCl density centrifugation (Chirgwin et al., Biochemistry 18:5294-5299 (1979)). RNA samples were size-separated on a 1% agarose formaldehyde gel, transferred to a GeneScreen Plus™ membrane (New England Nuclear) and hybridized with a multi-prime (Amersham) labeled partial cDNA clone for mouse syndecan (PM-4) (Saunders et al., J. Cell Biol. 108:1547-1556 (1989)). After hybridization, the membrane was washed in 2×SSC and 1.0% SDS at 65° C. (high stringency conditions). For rehybridization with glyceraldehyde-3-phosphate-dehydrogenase (GAPDH; Fort et al., Nucleic Acid Res. 13:1431-1442 (1985)), the bound PM-4 probe was removed as recommended by the manufacturer of the filter (NEN).
Following incubation with FGF-2, syndecan MRNA was isolated and quantified. Control incubations without FGF-2 were also performed. Syndecan mRNA was isolated and quantified […] FGF-2 treatment following 6, 12, and 24 hr incubations. The quantification of syndecan mRNA production can be seen in FIG. 11a. GAPDH mRNA was used as a loading control. […] The enhancement appears to be maximal at about 6 hrs of FGF-2 incubation, and decreases thereafter. In the Figure, two individual exposures for each time point are presented.

syndecan-1 gene [3] = test: Nuclear run-off of syndecan-1 transcription in 3T3NIH cells; assay type: cell-based, mouse
Description: The same cells were exposed to 10 ng/ml of FGF-2 for 4 hours and 24 hours with or without exposure to FGF (Control) followed by the isolation of nuclei for the run-off experiment. c-jun or nur transcription was used as a positive control and β-actin as a loading control. In nuclei isolated 4 hours after FGF exposure the level of transcription of the syndecan-1 gene was elevated as were the levels for c-jun and nur as positive controls.

MCA3D cells = test: Cell proliferation of MCA3D keratinocytes; assay type: cell-based; settings: MCA3D mouse keratinocytes
3T3NIH cells = test: 125-IdU incorporation (DNA synthesis) assay in 3T3NIH cells; assay type: cell-based, mouse; settings: pFiRE transfected 3T3NIH cells; 10 ng/ml growth factor (2 ng/ml TGF-β) or 5% FCS
Description: Effect of Various Growth Factors on Enhancer Activation in NIH3T3 Cells. Plasmid pFiRE was transfected into 3T3NIH cells as described, supra. The cells were starved in DMEM medium supplemented with 5% fetal calf serum to about 70% confluence. Fetal calf serum was then replaced with 2% carboxy-methyl-Sephadex eluted fetal calf serum (CMS) 12 hrs before adding the growth factors. Various growth factors in the same medium, 5% fetal calf serum (FCS) supplemented medium or a control containing the medium, without any added growth factors were incubated with the transfected cells for 2 days, and CAT activity was measured. The effect of 10 ng/ml of FGF-2, FGF-1, FGF-4, FGF-7 (KGF), EGF, IGF1, TGFα, IFNγ, and PDGF and 2 ng/ml TGF-β were tested. The human recombinant growth factors were purchased from Peprotech (FGF-1, -2, and -7), Boehringer (FGF-2) or from Calbiochem (PDGF) TGF-β was purchased from Sigma. The effect of the added growth factors and FCS on DNA synthesis was also tested by a 125-IdU incorporation assay. This cell proliferation assay was carried out by incubating cells for 4-6 hrs with 0.25 μCi/ml 5-[^125I]iodo-2′-deoxyuridine (IdU, Amersham), washed several times with PBS and solubilized in 1 M NaOH. Radioactivity was measured using a gamma counter (Wallac).

Q: With “FGF-2: Basic fibroblast growth factor (FGF-2 or bFGF); recombinant human” as the substance, how does the “activation of CAT expression from pFiRE” value [1] read?
A: Its value is “significantly reduced”.

Q: And the “time of maximal enhancement of syndecan mRNA” value (syndecan-1 gene [2])?
A: The value was “about 6 hrs”.

Q: What about the “syndecan mRNA expression” value (syndecan-1 gene [2]; after 4 hrs) of the same substance?
A: The value was “significantly enhanced (several fold)”.

Q: What about the “transcription of syndecan-1 (run-off)” value (syndecan-1 gene [3]; after 24 hours of 10 ng/ml FGF-2) of the same substance?
A: The value was “not detectable”.

Q: What about the “level of transcription of the syndecan-1 gene (run-off)” value (syndecan-1 gene [3]; nuclei isolated 4 hours after 10 ng/ml FGF exposure) of the same substance?
A: The value was “elevated”.

Q: And the cell proliferation (MCA3D cells)?
A: The cell proliferation was “stimulated cell proliferation”.

Q: And the “DNA synthesis / cell proliferation (125-IdU incorporation)” value (3T3NIH cells)?
A: The value was “significant increase in DNA synthesis”.

— patent US6492344B1, “Syndecan enhancer element and syndecan stimulation of cellular differentiation” (Biotie Therapies Corp., priority 1993, dated 2002)
